Reference: patent publication US20240025862A1, “SUBSTITUTED N-PHENYLURACILS AND SALTS THEREOF, AND USE THEREOF AS HERBICIDAL ACTIVE SUBSTANCES” (Bayer Aktiengesellschaft, priority 2020, published 2024)
Each block holds one molecule with its values, some of them ahead of it.

Assays:
Format in all cases: in vivo
Setaria viridis (SETVI) = assay: Post-emergence herbicidal action, greenhouse pot test (also comparative test C)
How it was run: (§1)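 Visual rating against untreated controls, about 3 weeks after spraying, from 0% (like control) to 100% (plants dead). Weeds were treated at the one-leaf stage, 2–3 weeks after sowing in sandy loam, with aqueous WP/EC spray containing 0.5% additive at 600 l/ha. Doses were ≤20 g/ha, or ≤5 g/ha for comparative test C.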

[1] = tested on: Matricaria inodora (MATIN); assay: as above
How it was run: as §1

[2] = tested on: Alopecurus myosuroides (ALOMY); assay: as above; details: rated visually after about 3 weeks vs untreated controls, 100% = plants have died
How it was run: as §1

[3] = tested on: Echinochloa crus-galli (ECHCG); assay: as above
How it was run: as §1

Glycine max (GLXMA) = assay: Post-emergence crop plant compatibility, greenhouse pot test
How it was run: (§2)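 Greenhouse-grown crop plants sprayed post-emergence at the one-leaf stage with WP or EC formulations plus 0.5% additive, at 600 l/ha water. Damage rated visually after about 3 weeks versus untreated controls (0% = like control, 100% = dead); suffixes a/b/c denote different dosages.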

Zea mays (ZEAMX) = assay: as above; details: 1.25 g/ha, vs untreated controls
How it was run: as §2

[4] = tested on: Triticum aestivum (TRZAS); assay: as above; details: vs untreated controls
How it was run: as §2

Oryza sativa (ORYSA) = assay: Post-emergence crop plant compatibility, greenhouse pot test (also comparative test C); details: for Post-emergence action against ORYSA (crop plant compatibility): vs untreated controls
How it was run: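 Rice and other crops sprayed post-emergence at one-leaf stage (2–3 weeks after sowing) with WP or EC formulations plus 0.5% additive at 600 l/ha water. Visual rating about 3 weeks later versus untreated controls (100% = dead, 0% = like control); suffixes a–c denote different doses.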

[5] = tested on: Amaranthus retroflexus (AMARE); assay: Post-emergence herbicidal action, greenhouse pot test; details: rated visually after about 3 weeks vs untreated controls, 100% = plants have died
How it was run: (§3)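 Greenhouse-grown weeds in sandy loam were sprayed post-emergence at the one-leaf stage, 2–3 weeks after sowing. Compounds were formulated as WP or EC in water with 0.5% additive at 600 l/ha, at rates of 20 g/ha or less. Visual rating after about 3 weeks used a scale from 0% (like untreated control) to 100% (plants dead).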

[6] = tested on: Pharbitis purpurea (PHBPU); assay: as above
How it was run: as §3

[7] = tested on: Abutilon theophrasti (ABUTH); assay: as above; details: rated visually after about 3 weeks vs untreated controls, 100% = plants have died
How it was run: as §3

Avena fatua (AVEFA) = assay: as above; details: 20 g/ha, rated visually after about 3 weeks vs untreated controls, 100% = plants have died
How it was run: as §3

Lolium rigidum (LOLRI) = assay: as above; details: dosage 20 g/ha
How it was run: as §3

Viola tricolor (VIOTR) = assay: as above
How it was run: as §3

Veronica persica (VERPE) = assay: as above
How it was run: as §3

[8] = tested on: Polygonum convolvulus (POLCO); assay: as above; details: dosage 20 g/ha
How it was run: as §3

Post-emergence action against GLXMA in % (Glycine max (GLXMA); 1.25 g/ha): 20%
Post-emergence action against GLXMA in % (Glycine max (GLXMA); 5 g/ha): 20%
Post-emergence action against ZEAMX (crop plant compatibility) (Zea mays (ZEAMX)): 10%
Post-emergence action against TRZAS (crop plant compatibility) ([4]; 1.25 g/ha): 20%
Post-emergence action against TRZAS (crop plant compatibility) ([4]; 5 g/ha): 20%
Post-emergence action against TRZAS (crop plant compatibility) ([4]; 20 g/ha): 20%
Post-emergence action against ORYSA (crop plant compatibility) (Oryza sativa (ORYSA); 1.25 g/ha): 0%
Post-emergence action against ORYSA (crop plant compatibility) (Oryza sativa (ORYSA); 5 g/ha): 20%
SMILES: Cn1c(C(F)(F)F)cc(=O)n(-c2cc(Oc3ccccc3OCC(=O)OCC#N)c([N+](=O)[O-])cc2F)c1=O [I.6-176, Cyanomethyl (2-{4-fluoro-5-[3-methyl-2,6-dioxo-4-(trifluoromethyl)-3,6-dihydropyrimidin-1(2H)-yl]-2-nitrophenoxy}phenoxy)acetate]
pest or weed control at 20 g/ha (Setaria viridis (SETVI); Setaria viridis, 504 h, 20 g/ha, read-out: Post-emergence action against SETVI): 100%
pest or weed control at 1.25 g/ha (Setaria viridis (SETVI); Setaria viridis, 504 h, dosage 1.25 g/ha, read-out: Post-emergence action against SETVI in %): 100%
pest or weed control at 5 g/ha (Setaria viridis (SETVI); Setaria viridis, 504 h, dosage 5 g/ha, read-out: Post-emergence action against SETVI in %): 100%
pest or weed control at 5 g/ha ([1]; Tripleurospermum inodorum, 504 h, dosage 5 g/ha, read-out: Post-emergence action against MATIN in %): 80%
pest or weed control at 20 g/ha ([1]; Tripleurospermum inodorum, 504 h, dosage 20 g/ha, read-out: Post-emergence action against MATIN in %): 100%
pest or weed control at 5 g/ha ([2]; Alopecurus myosuroides, 504 h, 5 g/ha, read-out: Post-emergence action at 5 g/ha against ALOMY in %): 80%
pest or weed control at 20 g/ha ([2]; Alopecurus myosuroides, 504 h, 20 g/ha, read-out: Post-emergence action at 20 g/ha against ALOMY in %): 90%
Post-emergence action at 1.25 g/ha against ECHCG in % ([3]; 1.25 g/ha, rated visually after about 3 weeks vs untreated controls, 100% = plants have died): 100%
pest or weed control at 5 g/ha ([3]; Echinochloa crus-galli, 504 h, dosage 5 g/ha, read-out: Post-emergence action against ECHCG in %): 100%
pest or weed control at 20 g/ha ([3]; Echinochloa crus-galli, 504 h, dosage 20 g/ha, read-out: Post-emergence action against ECHCG in %): 100%
pest or weed control at 1.25 g/ha ([5]; Amaranthus retroflexus, 504 h, 1.25 g/ha, read-out: Post-emergence action at 1.25 g/ha against AMARE in %): 100%
pest or weed control at 5 g/ha ([5]; Amaranthus retroflexus, 504 h, 5 g/ha, read-out: Post-emergence action at 5 g/ha against AMARE in %): 100%
pest or weed control at 20 g/ha ([5]; Amaranthus retroflexus, 504 h, 20 g/ha, read-out: Post-emergence action at 20 g/ha against AMARE in %): 100%
pest or weed control at 1.25 g/ha ([6]; Ipomoea purpurea, 504 h, dosage 1.25 g/ha, read-out: Post-emergence action against PHBPU in %): 80%
pest or weed control at 5 g/ha ([6]; Ipomoea purpurea, 504 h, dosage 5 g/ha, read-out: Post-emergence action against PHBPU in %): 100%
pest or weed control at 20 g/ha ([6]; Ipomoea purpurea, 504 h, dosage 20 g/ha, read-out: Post-emergence action against PHBPU in %): 100%
pest or weed control at 1.25 g/ha ([7]; Abutilon theophrasti, 504 h, 1.25 g/ha, read-out: Post-emergence action at 1.25 g/ha against ABUTH in %): 100%
pest or weed control at 5 g/ha ([7]; Abutilon theophrasti, 504 h, 5 g/ha, read-out: Post-emergence action at 5 g/ha against ABUTH in %): 100%
pest or weed control at 20 g/ha ([7]; Abutilon theophrasti, 504 h, 20 g/ha, read-out: Post-emergence action at 20 g/ha against ABUTH in %): 100%
pest or weed control at 20 g/ha (Avena fatua (AVEFA); Avena fatua, 504 h, read-out: Post-emergence action at 20 g/ha against AVEFA in %): 80%
pest or weed control at 20 g/ha (Lolium rigidum (LOLRI); Lolium rigidum, 504 h, read-out: Post-emergence action against LOLRI in %): 90%
pest or weed control at 1.25 g/ha (Viola tricolor (VIOTR); Viola tricolor, 504 h, 1.25 g/ha, read-out: Post-emergence action against VIOTR): 100%
pest or weed control at 5 g/ha (Viola tricolor (VIOTR); Viola tricolor, 504 h, 5 g/ha, read-out: Post-emergence action against VIOTR): 100%
pest or weed control at 20 g/ha (Viola tricolor (VIOTR); Viola tricolor, 504 h, 20 g/ha, read-out: Post-emergence action against VIOTR): 100%
pest or weed control at 1.25 g/ha (Veronica persica (VERPE); Veronica persica, 504 h, 1.25 g/ha, read-out: Post-emergence action against VERPE): 80%
pest or weed control at 5 g/ha (Veronica persica (VERPE); Veronica persica, 504 h, 5 g/ha, read-out: Post-emergence action against VERPE): 90%
pest or weed control at 20 g/ha (Veronica persica (VERPE); Veronica persica, 504 h, 20 g/ha, read-out: Post-emergence action against VERPE): 100%
pest or weed control at 20 g/ha ([8]; Fallopia convolvulus, 504 h, read-out: Post-emergence action against POLCO in %): 100%

Post-emergence action against GLXMA in % (Glycine max (GLXMA); 1.25 g/ha): 20%
Post-emergence action against ZEAMX (crop plant compatibility) (Zea mays (ZEAMX)): 10%
Post-emergence action against TRZAS (crop plant compatibility) ([4]; 1.25 g/ha): 10%
Post-emergence action against TRZAS (crop plant compatibility) ([4]; 5 g/ha): 10%
Post-emergence action against ORYSA (crop plant compatibility) (Oryza sativa (ORYSA); 1.25 g/ha): 0%
Post-emergence action against ORYSA (crop plant compatibility) (Oryza sativa (ORYSA); 5 g/ha): 10%
Post-emergence action against ORYSA in % (Oryza sativa (ORYSA); 20 g/ha, crop plant compatibility): 20%
SMILES: Cn1c(C(F)(F)F)cc(=O)n(-c2cc(Oc3ccccc3OCC(=O)OCc3ccccn3)c([N+](=O)[O-])cc2F)c1=O [I.6-276]
Post-emergence action against SETVI (Setaria viridis (SETVI); 20 g/ha): 100%
Post-emergence action against SETVI in % (Setaria viridis (SETVI); dosage 1.25 g/ha): 100%
Post-emergence action against SETVI in % (Setaria viridis (SETVI); dosage 5 g/ha): 100%
Post-emergence action against MATIN in % ([1]; dosage 5 g/ha): 100%
Post-emergence action against MATIN in % ([1]; dosage 20 g/ha): 100%
Post-emergence action at 5 g/ha against ALOMY in % ([2]; 5 g/ha): 80%
Post-emergence action at 20 g/ha against ALOMY in % ([2]; 20 g/ha): 100%
Post-emergence action against ECHCG in % ([3]; dosage 5 g/ha): 90%
Post-emergence action against ECHCG in % ([3]; dosage 20 g/ha): 100%
Post-emergence action at 1.25 g/ha against AMARE in % ([5]; 1.25 g/ha): 100%
Post-emergence action at 5 g/ha against AMARE in % ([5]; 5 g/ha): 100%
Post-emergence action at 20 g/ha against AMARE in % ([5]; 20 g/ha): 100%
Post-emergence action against PHBPU in % ([6]; dosage 1.25 g/ha): 100%
Post-emergence action against PHBPU in % ([6]; dosage 5 g/ha): 100%
Post-emergence action against PHBPU in % ([6]; dosage 20 g/ha): 100%
Post-emergence action at 1.25 g/ha against ABUTH in % ([7]; 1.25 g/ha): 100%
Post-emergence action at 5 g/ha against ABUTH in % ([7]; 5 g/ha): 100%
Post-emergence action at 20 g/ha against ABUTH in % ([7]; 20 g/ha): 100%
Post-emergence action at 20 g/ha against AVEFA in % (Avena fatua (AVEFA)): 80%
Post-emergence action against LOLRI in % (Lolium rigidum (LOLRI)): 90%
Post-emergence action against VIOTR (Viola tricolor (VIOTR); 1.25 g/ha): 100%
Post-emergence action against VIOTR (Viola tricolor (VIOTR); 5 g/ha): 100%
Post-emergence action against VIOTR (Viola tricolor (VIOTR); 20 g/ha): 100%
Post-emergence action against VERPE (Veronica persica (VERPE); 5 g/ha): 100%
Post-emergence action against VERPE (Veronica persica (VERPE); 20 g/ha): 100%
Post-emergence action against POLCO in % [8]: 100%
